Test results taken from patent publication US20130096067A1, “DROSOPHILA TUMOR STEM CELL MODEL AND USES THEREOF” (priority 2011, published 2013).
Read-outs that look alike come from different tables or passages of the source. Peptide text beside a SMILES is read from it. * marks the point of attachment. Cbz = O=C(OCc1ccccc1)*

Test system: Raf-1^gof intestinal tumors
Conditions: for Log2 (fold) of luciferase activity relative to DMSO controls / Fold (luciferase activity relative to DMSO controls): ICCB compounds fed in vials to flies with one-day old Raf-1^gof tumors
[1] = screen of 480 ICCB compounds in vials, compounds fed to flies with one-day old Raf-1^gof tumors, assessed three days later, esg-Gal4 luciferase
[2] = screen of 480 ICCB compounds in vials, compounds fed to flies with one-day old Raf-1^gof tumors, assessed three days later, esg-Gal4 luciferase, averaged from multiple wells
[3] = assessed three days later, averaged from multiple wells
For Fold (luciferase activity relative to DMSO controls) in this document: test concentration or dose not given here.
For Fold (luciferase activity, fold difference relative to DMSO controls) in this document: test concentration or dose not given here.
For Log2 (fold) (luciferase activity, log2 of the fold difference relative to DMSO controls) in this document: test concentration or dose not given here.
For Log2 (fold) of luciferase activity relative to DMSO controls in this document: test concentration or dose not given here.

| Compound | Log2 (fold) (luciferase activity, log2 of the fold difference relative to DMSO controls) [1] | Fold (luciferase activity, fold difference relative to DMSO controls) [2] | Log2 (fold) of luciferase activity relative to DMSO controls (assessed three days later) | Fold (luciferase activity relative to DMSO controls) [3] | also measured |
| --- | --- | --- | --- | --- | --- |
| COc1cccc2c1C(=O)c1c(O)c3c(c(O)c1C2=O)C[C@@](O)(C(=O)CO)C[C@@H]3O[C@H]1C[C@H](N)[C@H](O)[C@H](C)O1 [doxorubicin] | −0.520 | 0.697 | – | – | – |
| CC1=NS(=O)(=O)c2cc(Cl)ccc2N1 [DIAZOXIDE] | −0.257 | 0.837 | – | – | – |
| C#CCN(C)C(C)Cc1ccccc1 (stereo not shown) [Deprenyl] | −0.642 | 0.641 | – | – | – |
| CCCCC[C@H](O)/C=C/[C@@H]1[C@@H](C/C=C\CCCC(=O)O)[C@@H](O)C[C@H]1O [PROSTAGLANDIN F2a] | −0.450 | 0.732 | – | – | – |
| O=Cc1c2[nH]c3ccccc3c2cc2[nH]c3ccccc3c12 [6-FORMYLINDOLO [3,2-B] CARBAZOLE] | −0.273 | 0.828 | – | – | – |
| CCN(CC)CCCCCCCCOC(=O)c1cc(OC)c(OC)c(OC)c1 [TMB-8] | −0.325 | 0.798 | – | – | – |
| Oc1c2ccccc2c2c3c(cccc13)N=N2 [SP-600125] | – | – | −0.100 | 0.933 fold | – |
| CC(C)(Oc1ccc(CCNC(=O)c2ccc(Cl)cc2)cc1)C(=O)O [bezafibrate] | – | – | −0.211 | 0.864 fold | – |
| CCCCC/C=C\C/C=C\C/C=C\CCCCC(=O)O [GAMMA-LINOLENIC ACID (18:3 n-6)] | – | – | −0.145 | 0.904 fold | – |
| CC[C@@H]1/C=C/C=C/C[C@H](C)[C@H](O)[C@](C)(O)C(=O)[C@H](C)[C@@H](O)[C@H](C)C(=O)[C@H](C)[C@@H](O)[C@H](C)/C=C/C(=O)O[C@H]2[C@@H](C)[C@@H](CC1)O[C@@]1(CC[C@@H](C)[C@@H](C[C@H](C)O)O1)[C@@H]2C [oligomycin A, reference compound] | −1.131 | 0.457 | – | – | Fold (Table 3 summary of hits, Screen ICCB, luciferase relative to DMSO, fed three consecutive days in vials): 0.457 fold |
| COC1=C2C[C@@H](C)C[C@H](OC)[C@H](O)[C@@H](C)/C=C(\C)[C@H](OC(N)=O)[C@@H](OC)/C=C\C=C(/C)C(=O)NC(=CC1=O)C2=O [geldanamycin] | −0.772 | 0.586 | – | – | – |
| CCCCC/C=C\C\C=C/C=C/C=C/[C@@H](SC[C@H](N)C(=O)O)[C@@H](O)CCCC(=O)O [LEUKOTRIENE E4] | −0.439 | 0.737 | – | – | – |
| CCCCCCCCCCCCCCC(F)C(=O)O (stereo not shown) [2-FLUOROPALMITIC ACID] | – | – | 0.051 | 1.036 fold | – |
| CCCCC/C=C\C/C=C\C/C=C\C/C=C\CCCC(=O)NCC(=O)O [N-ARACHIDONOYLGLYCINE] | – | – | – | – | Fold (luciferase activity, fold difference relative to DMSO controls) (in vivo): 0.664; Log2 (fold) (luciferase activity, log2 of the fold difference relative to DMSO controls) (in vivo): −0.590 |
| CCCCC/C=C\CC1OC1C/C=C\C/C=C\CCCC(=O)O (stereo not shown) [11,12-EPOXYEICOSATRIENOIC ACID] | – | – | −0.052 | 0.965 fold | – |
| Cc1coc2c1C(=O)C(=O)c1c-2ccc2c1CCCC2(C)C [Tanshinone IIA] | −0.570 | 0.674 | – | – | – |
| CCCCCCCCCCCCC/C=C/[C@@H](O)[C@@H](N)CO [SPHINGOSINE] | – | – | −0.030 | 0.980 fold | – |
| NC(=NC(=O)c1nc(Cl)c(N)nc1N)NCc1ccc(Cl)c(Cl)c1 [DICHLOROBENZAMIL] | – | – | −0.116 | 0.923 fold | – |
| O=C(NCCCCCCNC(=O)ON=C1CCCCC1)ON=C1CCCCC1 [RHC-80267] | −0.279 | 0.824 | – | – | – |
| C=C1CC[C@H](O)C/C1=C/C=C1\CCC[C@]2(C)[C@@H]([C@H](C)CCCC(C)(C)O)CC[C@@H]12 [25-HYDROXYVITAMIN D3] | – | – | −0.113 | 0.925 fold | – |
| CN1CCN(C2=Nc3cc(Cl)ccc3Nc3ccccc32)CC1 [clozapine] | – | – | −0.126 | 0.916 fold | – |
| Cc1cnc(C(=O)NCCc2ccc(S(=O)(=O)NC(=O)NC3CCCCC3)cc2)cn1 [GLIPIZIDE] | −0.417 | 0.749 | – | – | – |
| CC(=O)[C@H]1[C@H](C#N)C[C@H]2[C@@H]3CC=C4C[C@@H](O)CC[C@]4(C)[C@H]3CC[C@@]21C [Pregnenolone 16alpha carbonitrile] | −0.492 | 0.711 | – | – | – |

| Compound | Log2 (fold) (luciferase activity, log2 of the fold difference relative to DMSO controls) [1] | Fold (luciferase activity, fold difference relative to DMSO controls) [2] | Log2 (fold) of luciferase activity relative to DMSO controls (assessed three days later) | Fold (luciferase activity relative to DMSO controls) [3] | also measured |
| --- | --- | --- | --- | --- | --- |
| NCCc1c[nH]c2ccc(O)cc12 [serotonin] | – | – | 0.266 | 1.203 fold | – |
| CN(C)C[C@H](O)Cn1c2ccc(Br)cc2c2cc(Br)ccc21 (racemic) [Wiskostatin] | −0.646 | 0.639 | – | – | – |
| CC/C=C\C/C=C\C/C=C\C/C=C\C/C=C\CCCC(=O)O [EICOSAPENTAENOIC ACID (20:5 n-3)] | – | – | 0.024 | 1.017 fold | – |
| Cc1ccc(S(=O)(=O)/C=C/C#N)cc1 [BAY 11-7082] | −0.470 | 0.722 | – | – | – |
| CCCCC/C=C\C/C=C\C/C=C\C=C\[C@@H](O)CCCC(=O)O [5(S)-HETE] | −0.343 | 0.788 | – | – | – |
| CCCCC/C=C\C/C=C\C/C=C\C=C\[C@H](CCCC(=O)O)OO [5(S)-HPETE] | −0.524 | 0.696 | – | – | – |
| CNC(=O)[C@H](Cc1c[nH]c2ccccc12)NC(=O)[C@@H](CC(=O)NO)CC(C)C [GM6001] | – | – | 0.173 | 1.128 fold | – |
| COCc1cc(O)c(O)c(O)c1-c1c(COC)cc(O)c(O)c1O [HBDDE] | −0.233 | 0.851 | – | – | – |
| CC(COc1ccccc1)N(CCCl)Cc1ccccc1 (stereo not shown) [Phenoxybenzamine] | −0.600 | 0.660 | – | – | – |
| O=C1C2CCN(CC2)C1(CO)CO [PRIMA-1] | – | – | −0.110 | 0.926 fold | – |
| N=C(N)NC(=O)c1nc(Cl)c(N)nc1N [AMILORIDE] | – | – | −0.041 | 0.972 fold | – |
| CCCCC[C@H](O)/C=C/[C@@H]1[C@@H](CC(=O)CCCCC(=O)O)[C@@H](O)C[C@H]1O [6-KETO-PROSTAGLANDIN F1a] | −0.435 | 0.740 | – | – | – |
| CCOC(=O)C1=C(C)NC(=S)NC1c1cccc(O)c1 (stereo not shown) [Monastrol] | −0.607 | 0.656 | – | – | – |
| COc1ccc2cc1Oc1ccc(cc1)C[C@H]1c3cc(c(OC)cc3CCN1C)Oc1c(OC)c(OC)cc3c1[C@H](C2)N(C)CC3 [TETRANDRINE] | −0.318 | 0.802 | – | – | – |
| CCCCCC(=O)/C=C/C=C\CCCCCCCC(=O)O [13-KETOOCTADECADIENOIC ACID] | – | – | 0.320 | 1.248 fold | – |
| CCCCC(C)(O)C/C=C/[C@H]1[C@H](O)CC(=O)[C@@H]1CCCCCCC(=O)O (mixture of isomers) [MISOPROSTOL, FREE ACID] | – | – | −0.137 | 0.909 fold | – |
| CC(C)C[C@@H](C=O)NC(=O)[C@H](CC(C)C)NC(=O)[C@H](CC(C)C)NC(=O)OCc1ccccc1 [MG-132] (Cbz-Leu-Leu-Leu-aldehyde) | – | – | 0.097 | 1.070 fold | – |
| CCCCC[C@H](O)/C=C/[C@@H]1[C@H]2C/C(=C/CCCC(=O)[O-])O[C@H]2C[C@H]1O.[Na+] [PROSTAGLANDIN I2 Na] | −0.244 | 0.844 | – | – | – |
| CCCCC/C=C\C/C=C\C/C=C\C/C=C\CCCC(=O)NCc1ccc(O)c(OC)c1 [Arvanil] | −0.482 | 0.716 | – | – | – |
| CN1CCN(CCCN2c3ccccc3Sc3ccc(C(F)(F)F)cc32)CC1 [trifluoperazine] | – | – | −0.206 | 0.867 fold | – |
| CCCCCCCCCCCCCCC[C@@H](O)[C@@H](N)CO [DIHYDROSPHINGOSINE] | – | – | 0.000 | 1.000 fold | – |
| HA14-1 | −0.590 | 0.664 | – | – | – |
